According to ChEMBL document CHEMBL1201862, “PubChem BioAssay data set” (2004):
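Compound exposure: 48 hours, 5 concentrations, 96-well plates. GI50 marks 50% less growth.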 Active and inactive are the calls of the source. Cut-off read from the data, not from the text of the source: active = GI50 up to about 1.1 µM and inactive = higher.

Key:
Assay in all cases: NCI anticancer screen, dose series, 48 h
HCC 2998 = system: HCC 2998
NCI-H460 = system: NCI-H460
RXF 393 = system: RXF 393
EKVX = system: EKVX
HOP-92 = system: HOP-92
ACHN = system: ACHN
OVCAR-3 = system: OVCAR-3
SK-MEL-28 = system: SK-MEL-28
CCRF-CEM = system: CCRF-CEM
COLO 205 = system: COLO 205
DLD-1 = system: DLD-1
U-251 = system: U-251
NCI-H522 = system: NCI-H522
RPMI-8226 = system: RPMI-8226
K562 = system: K562
NCI-H226 = system: NCI-H226

Measured: GI50

c1ccc2c(c1)C1=NCCN1c1ccccc1-2
inactive: HCC 2998 4.46 µM | NCI-H460 1.77 µM | RXF 393 1.56 µM | EKVX 4.54 µM | HOP-92 4.45 µM | ACHN 2.11 µM | OVCAR-3 2.95 µM | SK-MEL-28 3.91 µM | CCRF-CEM 1.64 µM | COLO 205 1.38 µM | DLD-1 1.77 µM | U-251 3.15 µM | NCI-H522 1.45 µM | RPMI-8226 2.32 µM

C[N+]1(C)C/C(=C/c2ccc(F)cc2)C(=O)/C(=C\c2ccc(F)cc2)C1
inactive: HCC 2998 > 100 µM | NCI-H460 50.9 µM | RXF 393 > 100 µM | EKVX > 100 µM | HOP-92 > 100 µM | ACHN > 100 µM | OVCAR-3 45.5 µM | K562 28.2 µM | SK-MEL-28 15 µM | CCRF-CEM 23.7 µM | COLO 205 60.7 µM | DLD-1 30.2 µM | U-251 16.4 µM | NCI-H522 16.6 µM | RPMI-8226 24.4 µM

Cn1c(=O)c2nc3sc4ccccc4c(=N)n3c2n(C)c1=O
inactive: NCI-H226 25.1 µM | HCC 2998 > 100 µM | NCI-H460 > 100 µM | RXF 393 > 100 µM | EKVX > 100 µM | HOP-92 > 100 µM | ACHN > 100 µM | K562 > 100 µM | SK-MEL-28 > 100 µM | CCRF-CEM > 100 µM | COLO 205 > 100 µM | DLD-1 > 100 µM | U-251 > 10 µM | NCI-H522 > 100 µM

N#CC(NNC(=O)c1ccccc1O)c1ccccc1O (configuration not stated)
inactive: NCI-H226 3.18 µM | NCI-H460 4.85 µM | RXF 393 12.8 µM | HOP-92 13.6 µM | ACHN 2.44 µM | OVCAR-3 2.52 µM | K562 5.43 µM | SK-MEL-28 10.9 µM | CCRF-CEM 2.06 µM | COLO 205 33.5 µM | DLD-1 3.26 µM | U-251 4.18 µM | NCI-H522 8.87 µM | RPMI-8226 4.03 µM

CC(C)(C)c1ccc2c(c1)S(=O)(=O)Nc1cccc(c1)NS(=O)(=O)c1cc(C(C)(C)C)ccc1OCCOCCO2
inactive: NCI-H226 > 100 µM | HCC 2998 > 100 µM | NCI-H460 > 100 µM | RXF 393 6.49 µM | EKVX > 100 µM | HOP-92 50.6 µM | ACHN > 100 µM | OVCAR-3 > 100 µM | K562 > 100 µM | SK-MEL-28 > 100 µM | COLO 205 > 100 µM | DLD-1 > 100 µM | U-251 > 100 µM | RPMI-8226 23.6 µM

O=[N+]([O-])c1cccc(-c2oc(/C=N/c3ccccc3)c([N+](=O)[O-])c2-c2cccc([N+](=O)[O-])c2)c1
inactive: NCI-H226 > 100 µM | HCC 2998 > 100 µM | NCI-H460 > 100 µM | RXF 393 > 100 µM | EKVX > 100 µM | HOP-92 > 100 µM | ACHN > 100 µM | OVCAR-3 > 100 µM | K562 > 100 µM | SK-MEL-28 > 100 µM | CCRF-CEM > 100 µM | COLO 205 > 100 µM | DLD-1 > 100 µM | U-251 > 100 µM | NCI-H522 > 100 µM | RPMI-8226 > 100 µM

Cc1ccc([S+]([O-])c2ccccc2[N+](=O)[O-])cc1 (configuration not stated)
inactive: NCI-H226 30.5 µM | HCC 2998 78.9 µM | NCI-H460 79.8 µM | RXF 393 > 100 µM | HOP-92 60 µM | ACHN > 100 µM | OVCAR-3 73.8 µM | K562 64.4 µM | SK-MEL-28 42.2 µM | CCRF-CEM 28.6 µM | DLD-1 > 100 µM | U-251 48.8 µM | NCI-H522 33.3 µM | RPMI-8226 52.8 µM

COc1ccc2c(c1)CCc1c(C(C)=O)c3ccccc3n1C2
inactive: HCC 2998 33.7 µM | NCI-H460 47.3 µM | RXF 393 22.8 µM | HOP-92 20.3 µM | ACHN 12 µM | OVCAR-3 12.1 µM | K562 6.37 µM | SK-MEL-28 60.3 µM | CCRF-CEM 63.4 µM | COLO 205 > 100 µM | DLD-1 42.4 µM | U-251 20.2 µM | NCI-H522 19.9 µM

CC1=C(C(=O)NCc2ccccc2)C(c2ccccc2[N+](=O)[O-])C(C(=O)NCc2ccccc2)=C(C)N1
inactive: NCI-H226 16.2 µM | HCC 2998 17.3 µM | NCI-H460 14 µM | RXF 393 10.6 µM | EKVX 16.4 µM | HOP-92 20.8 µM | ACHN 13.9 µM | OVCAR-3 5.31 µM | K562 5.08 µM | SK-MEL-28 13.1 µM | CCRF-CEM 6.89 µM | COLO 205 18.7 µM | DLD-1 6.73 µM | U-251 10.9 µM

C#CCn1c(=O)[nH]c(=O)c2cccnc21
inactive: NCI-H226 > 100 µM | HCC 2998 > 100 µM | RXF 393 > 100 µM | HOP-92 > 100 µM | ACHN > 100 µM | SK-MEL-28 > 100 µM | COLO 205 > 100 µM | DLD-1 > 100 µM | U-251 > 100 µM | NCI-H522 > 100 µM | RPMI-8226 > 100 µM

Ic1ncnc2c1ncn2C1CCCO1 (configuration not stated)
inactive: NCI-H226 > 100 µM | HCC 2998 > 100 µM | NCI-H460 > 100 µM | EKVX > 100 µM | HOP-92 > 100 µM | ACHN > 100 µM | OVCAR-3 > 100 µM | K562 > 100 µM | SK-MEL-28 > 100 µM | CCRF-CEM > 100 µM | COLO 205 > 100 µM | DLD-1 > 100 µM | U-251 > 100 µM | NCI-H522 > 100 µM | RPMI-8226 > 100 µM

COc1ccc2c3ccc4c(c3n(C)c2c1)C(=O)C=CC4=O
inactive: NCI-H226 > 100 µM | HCC 2998 84.5 µM | RXF 393 18.4 µM | EKVX 72.8 µM | HOP-92 14.1 µM | ACHN 20.7 µM | K562 5.92 µM | SK-MEL-28 84.9 µM | CCRF-CEM 2.93 µM | COLO 205 18.8 µM | DLD-1 15.3 µM | U-251 > 100 µM | NCI-H522 10.4 µM | RPMI-8226 6.41 µM

OC1OC2COC(c3ccccc3)OC2C(O)C1O (configuration not stated)
inactive: NCI-H226 > 100 µM | HCC 2998 > 100 µM | NCI-H460 > 100 µM | EKVX > 100 µM | HOP-92 > 100 µM | ACHN > 100 µM | OVCAR-3 > 100 µM | K562 > 100 µM | CCRF-CEM > 100 µM | COLO 205 > 100 µM | DLD-1 > 100 µM | U-251 > 100 µM | NCI-H522 > 100 µM | RPMI-8226 > 100 µM

CCOc1ccccc1NC(=O)CCC(=O)NN
inactive: NCI-H226 > 100 µM | HCC 2998 > 100 µM | NCI-H460 > 100 µM | RXF 393 > 100 µM | HOP-92 > 100 µM | ACHN > 100 µM | OVCAR-3 > 100 µM | K562 > 100 µM | SK-MEL-28 > 100 µM | CCRF-CEM > 100 µM | COLO 205 > 100 µM | DLD-1 > 100 µM | U-251 > 100 µM | NCI-H522 > 100 µM | RPMI-8226 65.6 µM

O=C(/C=C/c1ccccc1O)C(c1ccccc1)c1ccccc1
inactive: NCI-H226 > 100 µM | HCC 2998 > 100 µM | NCI-H460 > 100 µM | RXF 393 > 100 µM | EKVX > 100 µM | HOP-92 > 100 µM | ACHN > 100 µM | OVCAR-3 > 100 µM | K562 78.5 µM | SK-MEL-28 > 100 µM | CCRF-CEM 60.8 µM | COLO 205 39.3 µM | DLD-1 > 100 µM | U-251 > 100 µM | NCI-H522 65.6 µM | RPMI-8226 72.6 µM

CS(=O)(=O)C1S(=O)(=O)OCCOS1(=O)=O
inactive: NCI-H226 7.93 µM | HCC 2998 > 100 µM | NCI-H460 > 100 µM | RXF 393 > 100 µM | EKVX > 100 µM | HOP-92 > 100 µM | ACHN > 100 µM | OVCAR-3 > 100 µM | K562 > 100 µM | SK-MEL-28 > 100 µM | COLO 205 > 100 µM | DLD-1 > 100 µM | U-251 > 100 µM | NCI-H522 > 100 µM | RPMI-8226 > 100 µM

CC#CCC1CCC(OCC)=CC1=O (configuration not stated)
inactive: NCI-H226 92.7 µM | NCI-H460 > 100 µM | RXF 393 > 100 µM | EKVX > 100 µM | HOP-92 > 100 µM | ACHN > 100 µM | OVCAR-3 > 100 µM | K562 > 100 µM | SK-MEL-28 > 100 µM | CCRF-CEM > 100 µM | COLO 205 > 100 µM | DLD-1 > 100 µM | U-251 > 100 µM | NCI-H522 > 100 µM | RPMI-8226 > 100 µM

COc1ccc(Br)c(C(=O)N2CCc3ccccc32)c1N
inactive: NCI-H226 58.6 µM | HCC 2998 30 µM | NCI-H460 36 µM | RXF 393 55.2 µM | HOP-92 > 100 µM | ACHN 49 µM | OVCAR-3 27.5 µM | K562 30.2 µM | SK-MEL-28 52.7 µM | CCRF-CEM 33.4 µM | COLO 205 66.1 µM | DLD-1 42.9 µM | U-251 33.9 µM | NCI-H522 16.7 µM | RPMI-8226 40.6 µM

Cc1cn(C2CC(O)C(COC(=O)c3ccccc3)O2)c(=O)[nH]c1=O (configuration not stated)
inactive: HCC 2998 > 100 µM | NCI-H460 > 100 µM | RXF 393 > 100 µM | HOP-92 > 100 µM | ACHN > 100 µM | OVCAR-3 > 100 µM | K562 > 100 µM | SK-MEL-28 > 100 µM | CCRF-CEM > 100 µM | COLO 205 > 100 µM | DLD-1 > 100 µM | U-251 > 100 µM | NCI-H522 > 100 µM | RPMI-8226 > 100 µM
